“Also recorded” adds a separate entry of the source.
How the values were obtained:
[1] = tested on: extracellular Aβ1-40 accumulation, SH-SY5Y cells; assay: Effect of each test sample on extracellular Aβ1-40 accumulation (Human Aβ1-40 immunoassay of the medium); type: cell-based
Description: Wild-type human neuroblastoma cells (SH-SY5Y) were cultured in Eagle's Minimum essential Medium (EMEM)/Ham's F12 medium (1:1 mixture) (containing 10% FBS, 10 units/ml penicillin, 10 μg/ml Streptomycin). Wild-type mouse neuroblastoma Neuro-2a cells were cultured in minimum essential medium (MEM) (containing 10% FBS, 10 units/ml penicillin, 10 μg/ml Streptomycin).
The medium of the wild-type human neuroblastoma SH-SY5Y cells in Example 1 were switched into chemical defined medium (EMEM/F12 medium (Cat. No. 12500-062), Hepes 5 mM, Glucose 0.6%, NaHCO3 3 mM, Glutamine 2.5 mM, Insulin 25 μg/ml, Transferin 100 μg/ml, Progestrone 20 nM, Putrescine 60 μM, Sodium selenite 30 nM, Heparin 2 μg/ml). Each well contained 1×10^5 SH-SY5Y cells in 300 μl of culture medium. Thirty minutes later, each well was treated with the test samples given in Table 1 respectively at a total concentration of 50 μg/ml for 24 hours. After that, the level of Aβ1-40 in the medium of each well was analyzed by Human Aβ1-40 immunoassay kits (Catalog #KHB3482 Invitrogen).
Human neuroblastoma SH-SY5Y cells cause extracellular accumulation of Aβ. […] The results were shown in mean ± standard deviation (SD) form. Significant difference between the Vehicle control group and the test sample-treated groups were indicated by * * * , P<0.001.

Human Aβ1-42 = Human Aβ1-42 (Homo sapiens, UniProt P05067); assay: Effect of each test sample on Aβ1-42 oligomerization (thioflavin T fluorescence); type: biochemical; conditions: 50 μg/ml, 4° C., 24 hours, thioflavin T fluorescence (FIG. 2)
Human Aβ1-42, sequence (P05067 672-713 limits assumed): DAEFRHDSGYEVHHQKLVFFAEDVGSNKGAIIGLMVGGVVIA
Description: Dried Human Aβ1-42 was taken out from the refrigerator and equilibrated to room temperature. Aβ1-42 was dissolved in 1,1,1,3,3,3-Hexa-fluro-2-propanol (HFIP) to a concentration of 1 mM, and was then placed at room temperature for one hour. The Aβ1-42/HFIP solution was aliquoted by Hamilton syringe, and was then dried under a stream of nitrogen gas, followed by storing at a temperature of −20° C. Aβ1-42 treated with HFIP was dissolved in PBS, and was vibration-incubated with treatment of each test sample at a concentration of 50 μg/ml and at 4° C. for 24 hours to prepare Aβ1-42 oligomers. The level of Aβ1-42 oligomerization was analyzed by thioflavin T fluorescence (Ex=450 nm, Em=482 nm). […] That is to say, these pharmaceutical compositions can be used to prevent or treat Aβ-associated diseases or conditions.

Structure (SMILES)	reduces the level of Aβ1-40 in the medium ([1]; total concentration of 50 μg/ml, 24 hours, based on Vehicle control group (FIG. 1))	activity on inhibiting Aβ1-42 oligomerization (in words) (Human Aβ1-42)	activity on reducing extracellular Aβ1-40 accumulation (in words) ([1]; total 50 μg/ml, 24 hours (FIG. 1))
C[C@@H]1O[C@@H](O[C@@H]2[C@@H](O)[C@H](OCCc3ccc(O)c(O)c3)O[C@H](CO)[C@H]2OC(=O)/C=C/c2ccc(O)c(O)c2)[C@H](O)[C@H](O)[C@H]1O [A, Acteoside]	about 10%		
C[C@@H]1O[C@@H](O[C@@H]2[C@@H](O)[C@H](OCCc3ccc(O)c(O)c3)O[C@H](COC(=O)/C=C/c3ccc(O)c(O)c3)[C@H]2O)[C@H](O)[C@H](O)[C@H]1O [I, Isoacteoside]		better activity	significant activity; also recorded: better activity

— US20150087606A1, “PHARMACEUTICAL COMPOSITION FOR PREVENTING OR TREATING AMYLOID BETA PEPTIDE-ASSOCIATED DISEASES OR CONDITIONS” (Sinphar Tian-Li Pharmaceutical Co., Ltd. (Hangzhou), priority 2011, published 2015)
